Assay results reported in publication PMC11962866 (RSC Advances, 2025).
≈ marks a conversion by molar mass, not a printed value. Where two headings read alike, the source gives them in different places.

Columns and labels:
[1] = tested on: C. alb (SC5314); assay: In vitro antifungal assay; format: cell-based; conditions: Candida albicans, SC5314, read-out: MIC80 C. alb (SC5314)
[2] = tested on: C. neo; assay: In vitro antifungal assay; format: cell-based; conditions: Cryptococcus neoformans, read-out: MIC80 C. neo
[3] = tested on: Strain 904; assay: Antifungal activity against fluconazole-resistant strain; format: cell-based, Candida albicans; conditions: Candida albicans, 904, read-out: MIC80 Strain 904
[4] = tested on: Strain 901; assay: as above; format: cell-based; conditions: Candida albicans, 901, read-out: MIC80 Strain 901
[5] = tested on: Strain 632; assay: as above; format: cell-based; conditions: Candida albicans, 632, read-out: MIC80 Strain 632
[6] = tested on: Strain 17#; assay: as above; format: cell-based; conditions: Candida albicans, read-out: MIC80 Strain 17#
[7] = tested on: Strain CaR; assay: as above; format: cell-based; conditions: Candida albicans, read-out: MIC80 Strain CaR
[8] = tested on: MRC-5 cells; assay: Cytotoxicity assay on normal cells; format: cell-based, human; conditions: read-out: IC50 on MRC-5 cell lines
[9] = tested on: ERG11 and CDR1 of azole-resistant strain 904; assay: RT-PCR expression of resistant genes ERG11 and CDR1; format: cell-based, Candida albicans; conditions: 0.25 μg mL^−1, strain 904, RT-PCR
[10] = tested on: C. alb (5314),C. par, C. gla, C. kru and C. neo; assay: In vitro antifungal assay, span over the five tested species; format: cell-based; conditions: range over C. alb (5314)
[11] = Metabolic stability assay of liver microsomes; format: in vitro ADME; conditions: mouse
[12] = Plasma stability assay; conditions: male, SD, rat

Row | half-life [11] | microsomal CLint [11] | half-life [12] | remaining at 3 h [12] | Structure (SMILES) | MIC80 [1] | MIC80 [2] | MIC80 [3] | MIC80 [4] | MIC80 [5] | MIC80 [6] | MIC80 [7] | IC50 ([8]; Homo sapiens, MRC5, 72 h) | Expression of ERG11 and CDR1 [9] | MIC80 / MIC span over the five tested fungi [10] | IC50 ([8]; 72 hours)
1 | – | – | – | – | O=C(Nc1ccccc1)c1ccc(COC(Cn2ccnc2)c2ccc(Cl)cc2Cl)cc1 (stereo not shown) [A01, 4-((1-(2,4-dichlorophenyl)-2-(1H-imidazol-1-yl)ethoxy)methyl)-N-phenylbenzamide] | 0.125 µg/mL (≈ 0.268 µM) | 0.25 µg/mL (≈ 0.536 µM) | 0.5 µg/mL (≈ 1.07 µM) | 2 µg/mL (≈ 4.29 µM) | 4 µg/mL (≈ 8.58 µM) | 8 µg/mL (≈ 17.2 µM) | 4 µg/mL (≈ 8.58 µM) | > 100 µM | reduced to basic levels | – | –
2 | – | – | – | – | O=C(Nc1ccc(F)cc1)c1ccc(COC(Cn2ccnc2)c2ccc(Cl)cc2Cl)cc1 (stereo not shown) [A02, 4-((1-(2,4-Dichlorophenyl)-2-(1H-imidazol-1-yl)ethoxy)methyl)-N-(4-fluorophenyl)benzamide] | 0.125 µg/mL (≈ 0.258 µM) | 0.5 µg/mL (≈ 1.03 µM) | 0.25 µg/mL (≈ 0.516 µM) | 4 µg/mL (≈ 8.26 µM) | 4 µg/mL (≈ 8.26 µM) | 8 µg/mL (≈ 16.5 µM) | 8 µg/mL (≈ 16.5 µM) | > 100 µM | – | – | –
3 | – | – | – | – | O=C(Nc1ccc(Cl)cc1)c1ccc(COC(Cn2ccnc2)c2ccc(Cl)cc2Cl)cc1 (stereo not shown) [A03, N-(4-Chlorophenyl)-4-((1-(2,4-dichlorophenyl)-2-(1H-imidazol-1-yl)ethoxy)methyl)benzamide] | 0.125 µg/mL (≈ 0.25 µM) | 0.06 µg/mL (≈ 0.12 µM) | 0.25 µg/mL (≈ 0.499 µM) | 2 µg/mL (≈ 3.99 µM) | 4 µg/mL (≈ 7.99 µM) | 16 µg/mL (≈ 31.9 µM) | 8 µg/mL (≈ 16 µM) | > 100 µM | – | – | –
4 | – | – | – | – | O=C(Nc1ccc(Br)cc1)c1ccc(COC(Cn2ccnc2)c2ccc(Cl)cc2Cl)cc1 (stereo not shown) [A04, N-(4-Bromophenyl)-4-((1-(2,4-dichlorophenyl)-2-(1H-imidazol-1-yl)ethoxy)methyl)benzamide] | 0.06 µg/mL (≈ 0.11 µM) | 0.25 µg/mL (≈ 0.458 µM) | 0.25 µg/mL (≈ 0.458 µM) | 2 µg/mL (≈ 3.67 µM) | 4 µg/mL (≈ 7.34 µM) | 16 µg/mL (≈ 29.3 µM) | 4 µg/mL (≈ 7.34 µM) | > 100 µM | – | – | –
5 | – | – | – | – | Cc1ccc(NC(=O)c2ccc(COC(Cn3ccnc3)c3ccc(Cl)cc3Cl)cc2)cc1 (stereo not shown) [A05, 4-((1-(2,4-Dichlorophenyl)-2-(1H-imidazol-1-yl)ethoxy)methyl)-N-(p-tolyl)benzamide] | 0.03 µg/mL (≈ 0.0624 µM) | 0.25 µg/mL (≈ 0.52 µM) | 0.25 µg/mL (≈ 0.52 µM) | 4 µg/mL (≈ 8.33 µM) | 4 µg/mL (≈ 8.33 µM) | 8 µg/mL (≈ 16.7 µM) | 4 µg/mL (≈ 8.33 µM) | > 100 µM | – | – | –
6 | – | – | – | – | O=C(Nc1ccc(C(F)(F)F)cc1)c1ccc(COC(Cn2ccnc2)c2ccc(Cl)cc2Cl)cc1 (stereo not shown) [A06, 4-((1-(2,4-Dichlorophenyl)-2-(1H-imidazol-1-yl)ethoxy)methyl)-N-(4-(trifluoromethyl)phenyl)benzamide] | 0.06 µg/mL (≈ 0.112 µM) | 0.125 µg/mL (≈ 0.234 µM) | 0.25 µg/mL (≈ 0.468 µM) | 2 µg/mL (≈ 3.74 µM) | 2 µg/mL (≈ 3.74 µM) | 16 µg/mL (≈ 29.9 µM) | 2 µg/mL (≈ 3.74 µM) | > 100 µM | – | – | –
7 | – | – | – | – | COc1ccc(NC(=O)c2ccc(COC(Cn3ccnc3)c3ccc(Cl)cc3Cl)cc2)cc1 (stereo not shown) [A07, 4-((1-(2,4-Dichlorophenyl)-2-(1H-imidazol-1-yl)ethoxy)methyl)-N-(4-methoxyphenyl)benzamide] | 0.06 µg/mL (≈ 0.121 µM) | 0.25 µg/mL (≈ 0.504 µM) | 0.25 µg/mL (≈ 0.504 µM) | 4 µg/mL (≈ 8.06 µM) | 4 µg/mL (≈ 8.06 µM) | 4 µg/mL (≈ 8.06 µM) | 4 µg/mL (≈ 8.06 µM) | > 100 µM | reduced to basic levels | – | –
8 | – | – | – | – | O=C(Nc1cccc(F)c1)c1ccc(COC(Cn2ccnc2)c2ccc(Cl)cc2Cl)cc1 (stereo not shown) [A08, 4-((1-(2,4-Dichlorophenyl)-2-(1H-imidazol-1-yl)ethoxy)methyl)-N-(3-fluorophenyl)benzamide] | 0.06 µg/mL (≈ 0.124 µM) | 0.125 µg/mL (≈ 0.258 µM) | 0.25 µg/mL (≈ 0.516 µM) | 2 µg/mL (≈ 4.13 µM) | 4 µg/mL (≈ 8.26 µM) | 16 µg/mL (≈ 33 µM) | 4 µg/mL (≈ 8.26 µM) | > 100 µM | – | – | –
9 | – | – | – | – | O=C(Nc1cccc(Cl)c1)c1ccc(COC(Cn2ccnc2)c2ccc(Cl)cc2Cl)cc1 (stereo not shown) [A09, N-(3-Chlorophenyl)-4-((1-(2,4-dichlorophenyl)-2-(1H-imidazol-1-yl)ethoxy)methyl)benzamide] | 0.03 µg/mL (≈ 0.0599 µM) | 0.125 µg/mL (≈ 0.25 µM) | 0.25 µg/mL (≈ 0.499 µM) | 2 µg/mL (≈ 3.99 µM) | 4 µg/mL (≈ 7.99 µM) | 8 µg/mL (≈ 16 µM) | 8 µg/mL (≈ 16 µM) | > 100 µM | – | – | –
10 | – | – | – | – | O=C(Nc1cccc(Br)c1)c1ccc(COC(Cn2ccnc2)c2ccc(Cl)cc2Cl)cc1 (stereo not shown) [A10, N-(3-Bromophenyl)-4-((1-(2,4-dichlorophenyl)-2-(1H-imidazol-1-yl)ethoxy)methyl)benzamide] | 0.25 µg/mL (≈ 0.458 µM) | 0.125 µg/mL (≈ 0.229 µM) | 0.25 µg/mL (≈ 0.458 µM) | 2 µg/mL (≈ 3.67 µM) | 8 µg/mL (≈ 14.7 µM) | 16 µg/mL (≈ 29.3 µM) | 8 µg/mL (≈ 14.7 µM) | > 100 µM | – | – | –
11 | – | – | – | – | O=C(Nc1ccc2cccnc2c1)c1ccc(COC(Cn2ccnc2)c2ccc(Cl)cc2Cl)cc1 (stereo not shown) [A12, 4-((1-(2,4-Dichlorophenyl)-2-(1H-imidazol-1-yl)ethoxy)methyl)-N-(quinolin-7-yl)benzamide] | 8 µg/mL (≈ 15.5 µM) | 4 µg/mL (≈ 7.73 µM) | 2 µg/mL (≈ 3.87 µM) | 8 µg/mL (≈ 15.5 µM) | 8 µg/mL (≈ 15.5 µM) | 8 µg/mL (≈ 15.5 µM) | 4 µg/mL (≈ 7.73 µM) | > 100 µM | – | 2 to 64 µg/mL | –
12 | – | – | – | – | O=C(Nc1cccc2ccccc12)c1ccc(COC(Cn2ccnc2)c2ccc(Cl)cc2Cl)cc1 (stereo not shown) [A13, 4-((1-(2,4-Dichlorophenyl)-2-(1H-imidazol-1-yl)ethoxy)methyl)-N-(naphthalen-1-yl)benzamide] | 8 µg/mL (≈ 15.5 µM) | 64 µg/mL (≈ 124 µM) | 1 µg/mL (≈ 1.94 µM) | 1 µg/mL (≈ 1.94 µM) | 8 µg/mL (≈ 15.5 µM) | 64 µg/mL (≈ 124 µM) | 128 µg/mL (≈ 248 µM) | > 100 µM | – | 2 to 64 µg/mL | –
13 | – | – | – | – | O=C(Nc1ccc2ccccc2c1)c1ccc(COC(Cn2ccnc2)c2ccc(Cl)cc2Cl)cc1 (stereo not shown) [A14, 4-((1-(2,4-Dichlorophenyl)-2-(1H-imidazol-1-yl)ethoxy)methyl)-N-(naphthalen-2-yl)benzamide] | 32 µg/mL (≈ 62 µM) | 32 µg/mL (≈ 62 µM) | 16 µg/mL (≈ 31 µM) | 16 µg/mL (≈ 31 µM) | 16 µg/mL (≈ 31 µM) | 64 µg/mL (≈ 124 µM) | 8 µg/mL (≈ 15.5 µM) | > 100 µM | – | 2 to 64 µg/mL | –
14 | – | – | – | – | O=C(Nc1ccc2[nH]ccc2c1)c1ccc(COC(Cn2ccnc2)c2ccc(Cl)cc2Cl)cc1 (stereo not shown) [A15, 4-((1-(2,4-Dichlorophenyl)-2-(1H-imidazol-1-yl)ethoxy)methyl)-N-(1H-indol-5-yl)benzamide] | 128 µg/mL (≈ 253 µM) | 128 µg/mL (≈ 253 µM) | 8 µg/mL (≈ 15.8 µM) | 8 µg/mL (≈ 15.8 µM) | 128 µg/mL (≈ 253 µM) | > 128 µg/mL | 128 µg/mL (≈ 253 µM) | > 100 µM | – | – | –
15 | 8.3 min | 660 µL/min/mg | > 360 min | 94.9% | Clc1ccc(COC(Cn2ccnc2)c2ccc(Cl)cc2Cl)c(Cl)c1 (stereo not shown) [Miconazole, miconazole] | 0.25 µg/mL (≈ 0.601 µM) | 0.125 µg/mL (≈ 0.3 µM) | – | – | – | – | – | – | – | – | –
16 | – | – | – | – | N.N.[Cl][Pt][Cl] [cis-Pt, reference compound] | – | – | – | – | – | – | – | – | – | – | 78.3 µM
